According to patent publication US9120764B2, “Chromene derivatives” (Consejo Superior de Investigaciones Cientificas, priority 2010, dated 2015):

How the values were obtained:
primary T lymphocytes [1] = assay: Inhibition of the proliferation of T lymphocytes caused by stimulation of the TCR (CFSE, flow cytometry); format: cell-based, human; conditions: anti-CD3 10 μg/ml, 3 days, CFSE proliferation index; FIG. 3
Protocol: The effect of compounds ECRA20, ECRA24 and CBM-1 on the ability of the TCR to induce T lymphocyte proliferation was evaluated in primary T lymphocytes obtained from blood of healthy human donors. T lymphocytes were marked permanently with the fluorescent compound Carboxyfluorescein succinimidyl ester (CFSE) and incubated for 3 days at 37° C. on 96-well plates coated with antibody anti-CD3 (10 μg/ml) in the presence of the indicated concentrations of the compounds. Proliferation index was calculated from the intensity of fluorescence of CFSE measured by flow cytometry. As the cells divide they lose CFSE fluorescence because original fluorescence is divided between the daughter cells. This way each division is followed by a […] of CFSE per cell. So it is possible to calculate the number of divisions. Proliferation index is calculated by dividing the sum of the number of divisions by the calculated number of original parent cells, which have not divided any time. Black square indicates the rate of proliferation of lymphocytes stimulated and not treated with compounds and white square lymphocytes not stimulated with anti-CD3 (FIG. 3).

[2] = molecular target: T1, interaction between TCR, through CD3ε, and the Nck SH3.1 domain (Homo sapiens, UniProt P16333); assay: In vitro "pull-down" assay of the TCR-Nck interaction; format: binding; conditions: Jurkat lysate, GST-SH3.1(Nck) on agarose beads, Western blot densitometry; FIG. 1
T1 construct: the amino-terminal human Nck1 SH3.1 domain; made in house; host or cells: bacterial cultures (GST-SH3.1); the TCR/CD3ε is endogenous, from a lysate of human Jurkat cells
Protocol: To do so, 10 million from human T cell line Jurkat were stimulated with 10 μg/ml of an anti-CD3 antibody for 5 minutes at 37° C. After the stimulation, the cells were lysed in isotonic buffer containing 0.3% Brij96 detergent. After removing the nucleus and other cellular debris by centrifugation, cell lysate aliquots were incubated with 10 μl of agarose beads covalently bound to glutathione and bound in turn to 5 μg of purified GST-SH3.1 (Nck) protein from bacterial cultures. The GST-SH3.1(Nck) protein corresponds to a fusion protein between glutathione S-transferase (GST) and the amino-terminal human Nck1 SH3.1 domain. Each of the aliquots of the cell lysate were incubated with GST-SH3.1 (Nck) in the presence of the indicated concentrations of inhibitors. After incubation, the agarose beads were collected by centrifugation and the quantity of TCR associated with GST-SH3.1 (Nck) was assessed by SDS-PAGE and Western blot with an antibody against TCR CD3ζ subunit. The quantification of the ratio between the quantity of TCR joined to GST-SH3.1 (Nck) in the presence of each of the concentrations of inhibitors, with respect to the amount that is attached in the absence of inhibitors, was evaluated by densitometry and is expressed under each rail as a percentage (FIG. 1).

primary T lymphocytes [3] = assay: Inhibition of the production of cytokines by T lymphocytes caused by stimulation of the TCR; format: cell-based, human; conditions: anti-CD3 10 μg/ml plus anti-CD28 1 μg/ml; IFNγ at 24 hours, TNFα, IL6, IL17a at 48 hours; FIG. 4
Protocol: The effect of the compounds ECRA20, ECRA24, and CBM-1 on the ability of the TCR to induce the secretion of cytokines by T lymphocytes, was evaluated in primary T lymphocytes obtained from blood of healthy human donor. Lymphocytes were stimulated with 10 μg/ml of anti-CD3 plus 1 μg/ml of anti-CD28 in the presence of the indicated quantities of the compounds and the cell supernatants were collected at 24 hours (IFNγ) and 48 hours (TNFα, IL6, and IL17a) to measure the concentration of cytokines secreted in the medium (FIG. 4).

| effect on the interaction between TCR, through CD3ε, and the Nck SH3.1 domain [2] | Compound | proliferation of T lymphocytes in response to stimulation of the TCR (primary T lymphocytes [1]) | production of cytokines by T lymphocytes caused by stimulation of the TCR (primary T lymphocytes [3]) |
| --- | --- | --- | --- |
| inhibitory effect | Fc1ccc(C2=C(CN3CCCC3)COc3ccccc32)cc1 [ECRA20, 1-((4-(4-Fluorophenyl)-2H-cromen-3-il)methyl)pyrrolidine] | suppress the proliferation of T lymphocytes | inhibit the production of cytokines |
| inhibitory effect | COc1ccc2c(c1)C(c1ccc(F)cc1)=C(CN1CCCC1)CO2 [ECRA24, 1-((4-(4-Fluorophenyl)-6-methoxy-2H-chromen-3-yl)methyl)pyrrolidine] | suppress the proliferation of T lymphocytes | inhibit the production of cytokines |
